The target in experiment [1] is T1, PxOctβ3 (Plutella xylostella, UniProt Z9TZ33AL48).
T1 construct: pcDNA3.1-PxOctβ3 stably expressed in HEK-293 cells; ORF also cloned in pEGFP-N1
The experiment in a line: intracellular cAMP assay, HEK-293 cells stably expressing the receptor. Format: cell-based. (Cyclic AMP is a second messenger, typically raised through Gs and lowered through Gi signalling.)

Experiment [2] addresses T1, PxOctβ3. The experiment is described as above. Format: cell-based. As to conditions: agonist; 1 nM-100 μM; b43 prints approximately 65 nM.

Results on 6 compounds are retold here after article PMC9409995, “Pharmacological Properties and Function of the PxOctβ3 Octopamine Receptor in Plutella xylostella (L.)” (Insects, 2022).

A word on the EC50: it is the concentration needed to bring the measured effect to its halfway point.

Regarding `NCCc1ccccc1` [2-phenylethylamine], the “fold cAMP at 10 μM” value at PxOctβ3 [1] (weak agonist) is “clonidine, amitraz, and 2-phenylethylamine were barely effective agonists”. Take `Cc1ccc(/N=C/N(C)/C=N/c2ccc(C)cc2C)c(C)c1` [amitraz]: the “fold cAMP at 10 μM” value at PxOctβ3 [1] (weak agonist) is “clonidine, amitraz, and 2-phenylethylamine were barely effective agonists”.

In the case of `Clc1cccc(Cl)c1NC1=NCCN1` [clonidine], the “fold cAMP at 10 μM” value at PxOctβ3 [1] (weak agonist) was “clonidine, amitraz, and 2-phenylethylamine were barely effective agonists”. Take `NCCc1ccc(O)c(O)c1` [dopamine]: the “fold cAMP at 10 μM” value at PxOctβ3 [1] (agonist) turned out to be 2.3 fold.

The compound `NC[C@H](O)c1ccc(O)cc1` [octopamine] showed a 50% effective concentration (EC50) at PxOctβ3 [2] of 65 nM. This lies in the double-digit nanomolar range. Turning to `NCCc1ccc(O)cc1` [tyramine], at PxOctβ3 [1] (agonist), the “fold cAMP at 10 μM” value is given as 9.6 fold.
